Results taken from the supplement of paper PMC10627819.

What was measured:
[1] = system: S. aureus DSM 20231; assay: fitness (endpoint OD595 vs no drug) (fraction); higher = more growth
Outline: (§1)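 With the first reading as background, OD595 was measured every 30 min for 14 h in 384-well plates kept at 37 °C and inoculated at OD595 0.01. TSB, LB Lennox or CY was the medium. Fitness is the optical density at the transition into stationary phase divided by the robust mean of no-drug control wells, with a cap of 1.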

[2] = system: S. aureus Newman; assay: as above
Outline: as §1

[3] = system: S. pneumoniae D39V; assay: as above
Outline: as §1

[4] = system: B. subtilis 168; assay: Bliss interaction score (quartile over a dose matrix) (fitness difference); higher = more antagonism (negative = synergy)
Outline: (§2)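 Each plate was normalised to the robust mean of its own no-drug wells, using OD595 at entry into stationary phase, with values capped at 1. This normalised growth is the fitness value. The Bliss score is the difference between observed and product-expected fitness, with single-drug fitness inferred from the combination data and quartiles taken over technical, biological and donor/recipient replicates.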

[5] = system: S. aureus DSM 20231; assay: as above
Outline: as §2

[6] = system: S. aureus Newman; assay: as above
Outline: as §2

[7] = system: S. pneumoniae D39V; assay: as above
Outline: as §2

[8] = first compound 0.625 µg/mL, partner 0.1875 µg/mL
[9] = first compound 0.625 µg/mL, partner 0.375 µg/mL
[10] = first compound 0.625 µg/mL, partner 0.75 µg/mL
[11] = first compound 1.25 µg/mL, partner 0.1875 µg/mL
[12] = first compound 1.25 µg/mL, partner 0.375 µg/mL
[13] = first compound 1.25 µg/mL, partner 0.75 µg/mL
[14] = first compound 2.5 µg/mL, partner 0.1875 µg/mL
[15] = first compound 2.5 µg/mL, partner 0.375 µg/mL
[16] = first compound 2.5 µg/mL, partner 0.75 µg/mL
[17] = first compound 0.078 µg/mL, partner 0.1562 µg/mL, main component drawn
[18] = first compound 0.078 µg/mL, partner 0.3125 µg/mL, main component drawn
[19] = first compound 0.078 µg/mL, partner 0.625 µg/mL, main component drawn
[20] = first compound 0.156 µg/mL, partner 0.1562 µg/mL, main component drawn
[21] = first compound 0.156 µg/mL, partner 0.3125 µg/mL, main component drawn
[22] = first compound 0.156 µg/mL, partner 0.625 µg/mL, main component drawn
[23] = first compound 0.312 µg/mL, partner 0.1562 µg/mL, main component drawn
[24] = first compound 0.312 µg/mL, partner 0.3125 µg/mL, main component drawn
[25] = first compound 0.312 µg/mL, partner 0.625 µg/mL, main component drawn
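Wherever Bliss interaction score (quartile over a dose matrix) is given: first quartile when negative (synergy) and third quartile when positive (antagonism).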

SMILES: Cc1ncc([N+](=O)[O-])n1CCO [Metronidazole] + CN[C@H](CC(C)C)C(=O)N[C@H]1C(=O)N[C@@H](CC(N)=O)C(=O)N[C@H]2C(=O)N[C@H]3C(=O)N[C@H](C(=O)N[C@H](C(=O)O)c4cc(O)cc(O)c4-c4cc3ccc4O)[C@H](O)c3ccc(c(Cl)c3)Oc3cc2cc(c3O[C@@H]2O[C@H](CO)[C@@H](O)[C@H](O)[C@H]2O[C@H]2C[C@](C)(N)[C@H](O)[C@H](C)O2)Oc2ccc(cc2Cl)[C@H]1O [Vancomycin]
- fitness [1, 8]: ≥ 1
- fitness [1, 9]: ≥ 1
- fitness [1, 10]: ≥ 1
- fitness [1, 11]: ≥ 1
- fitness [1, 12]: ≥ 1
- fitness [1, 13]: ≥ 1
- fitness [1, 14]: ≥ 1
- fitness [1, 15]: 1
- fitness [1, 16]: 0.995
- fitness [2, 8]: 0.987
- fitness [2, 9]: ≥ 1
- fitness [2, 10]: ≥ 1
- fitness ([2]; first compound 0.781 µg/mL, partner 0.1875 µg/mL, one replicate): ≥ 1
- fitness ([2]; first compound 0.781 µg/mL, partner 0.375 µg/mL, one replicate): ≥ 1
- fitness ([2]; first compound 0.781 µg/mL, partner 0.75 µg/mL, one replicate): ≥ 1
- fitness [2, 11]: 0.968
- fitness [2, 12]: ≥ 1
- fitness [2, 13]: 0.953
- fitness ([2]; first compound 1.562 µg/mL, partner 0.1875 µg/mL, one replicate): ≥ 1
- fitness ([2]; first compound 1.562 µg/mL, partner 0.375 µg/mL, one replicate): 0.995
- fitness ([2]; first compound 1.562 µg/mL, partner 0.75 µg/mL, one replicate): 0.99
- fitness [2, 14]: ≥ 1
- fitness [2, 15]: ≥ 1
- fitness [2, 16]: ≥ 1
- fitness ([2]; first compound 3.124 µg/mL, partner 0.1875 µg/mL, one replicate): 0.995
- fitness ([2]; first compound 3.124 µg/mL, partner 0.375 µg/mL, one replicate): 0.99
- fitness ([2]; first compound 3.124 µg/mL, partner 0.75 µg/mL, one replicate): ≥ 1
- fitness ([3]; first compound 1.073 µg/mL, partner 0.125 µg/mL): ≥ 1
- fitness ([3]; first compound 1.073 µg/mL, partner 0.5 µg/mL): 0.0194
- fitness ([3]; first compound 1.25 µg/mL, partner 0.03125 µg/mL): 0.992
- fitness ([3]; first compound 1.25 µg/mL, partner 0.0625 µg/mL): 0.959
- fitness ([3]; first compound 1.25 µg/mL, partner 0.125 µg/mL): 0.825
- fitness ([3]; first compound 2.145 µg/mL, partner 0.125 µg/mL): 0.895
- fitness ([3]; first compound 2.145 µg/mL, partner 0.5 µg/mL): 0.0439
- fitness ([3]; first compound 2.5 µg/mL, partner 0.03125 µg/mL): ≥ 1
- fitness ([3]; first compound 2.5 µg/mL, partner 0.0625 µg/mL): 0.966
- fitness ([3]; first compound 2.5 µg/mL, partner 0.125 µg/mL): 0.807
- fitness ([3]; first compound 4.29 µg/mL, partner 0.125 µg/mL): ≥ 1
- fitness ([3]; first compound 4.29 µg/mL, partner 0.5 µg/mL): 0.108
- fitness ([3]; first compound 5 µg/mL, partner 0.03125 µg/mL): 0.986
- fitness ([3]; first compound 5 µg/mL, partner 0.0625 µg/mL): 0.938
- fitness ([3]; first compound 5 µg/mL, partner 0.125 µg/mL): 0.792
- Bliss interaction score [4]: 0.0651
- Bliss interaction score [5]: 0.033
- Bliss interaction score [6]: 0.0696
- Bliss interaction score [7]: 0.123

SMILES: CO/N=C(\C(=O)N[C@@H]1C(=O)N2C(C(=O)O)=C(COC(C)=O)CS[C@H]12)c1csc(N)n1 [Cefotaxime] + CCCCCCCCCC(=O)N[C@@H]1[C@H]([C@@H]([C@H](O[C@H]1OC2=C3C=C4C=C2OC5=C(C=C(C=C5)[C@H]([C@H]6C(=O)N[C@@H](C7=C(C(=CC(=C7)O)OC8[C@H]([C@H]([C@@H]([C@H](O8)CO)O)O)O)C9=C(C=CC(=C9)[C@H](C(=O)N6)NC(=O)[C@@H]4NC(=O)[C@@H]1C2=CC(=CC(=C2)OC2=C(C=CC(=C2)[C@H](C(=O)N[C@H](CC2=CC(=C(O3)C=C2)Cl)C(=O)N1)N)O)O)O)C(=O)O)O[C@H]1[C@@H]([C@H]([C@@H]([C@H](O1)CO)O)O)NC(=O)C)Cl)CO)O)O [Teicoplanin]
- fitness ([1]; first compound 0.039 µg/mL, partner 0.1562 µg/mL, one replicate, main component drawn): 0.672
- fitness ([1]; first compound 0.039 µg/mL, partner 0.3125 µg/mL, one replicate, main component drawn): 0.754
- fitness ([1]; first compound 0.039 µg/mL, partner 0.625 µg/mL, one replicate, main component drawn): 0.786
- fitness [1, 17]: 0.791
- fitness [1, 18]: 0.828
- fitness [1, 19]: 0.826
- fitness [1, 20]: 0.705
- fitness [1, 21]: 0.775
- fitness [1, 22]: 0.716
- fitness [1, 23]: 0.667
- fitness [1, 24]: 0.665
- fitness [1, 25]: 0.663
- fitness ([2]; first compound 0.039 µg/mL, partner 0.62 µg/mL, one replicate, main component drawn): 0.563
- fitness ([2]; first compound 0.039 µg/mL, partner 1.24 µg/mL, one replicate, main component drawn): 0.614
- fitness ([2]; first compound 0.039 µg/mL, partner 2.48 µg/mL, one replicate, main component drawn): 0.405
- fitness [2, 17]: 0.684
- fitness [2, 18]: 0.672
- fitness ([2]; first compound 0.078 µg/mL, partner 0.62 µg/mL, one replicate, main component drawn): 0.592
- fitness [2, 19]: 0.574
- fitness ([2]; first compound 0.078 µg/mL, partner 1.24 µg/mL, one replicate, main component drawn): 0.531
- fitness ([2]; first compound 0.078 µg/mL, partner 2.48 µg/mL, one replicate, main component drawn): 0.203
- fitness [2, 20]: 0.52
- fitness [2, 21]: 0.498
- fitness ([2]; first compound 0.156 µg/mL, partner 0.62 µg/mL, one replicate, main component drawn): 0.459
- fitness [2, 22]: 0.46
- fitness ([2]; first compound 0.156 µg/mL, partner 1.24 µg/mL, one replicate, main component drawn): 0.487
- fitness ([2]; first compound 0.156 µg/mL, partner 2.48 µg/mL, one replicate, main component drawn): 0.094
- fitness [2, 23]: 0.343
- fitness [2, 24]: 0.356
- fitness ([2]; first compound 0.312 µg/mL, partner 0.62 µg/mL, one replicate, main component drawn): 0.453
- fitness [2, 25]: 0.315
- fitness ([2]; first compound 0.312 µg/mL, partner 1.24 µg/mL, one replicate, main component drawn): 0.436
- fitness ([2]; first compound 0.312 µg/mL, partner 2.48 µg/mL, one replicate, main component drawn): 0.0757
- fitness ([2]; first compound 0.625 µg/mL, partner 0.1562 µg/mL, one replicate, main component drawn): 0.0055
- fitness ([2]; first compound 0.625 µg/mL, partner 0.3125 µg/mL, one replicate, main component drawn): 0.0074
- fitness ([2]; first compound 0.625 µg/mL, partner 0.625 µg/mL, one replicate, main component drawn): 0.152
- fitness ([2]; first compound 1.25 µg/mL, partner 0.1562 µg/mL, one replicate, main component drawn): 0.0152
- fitness ([2]; first compound 1.25 µg/mL, partner 0.3125 µg/mL, one replicate, main component drawn): 0.0026
- fitness ([2]; first compound 1.25 µg/mL, partner 0.625 µg/mL, one replicate, main component drawn): 0.0074
- fitness ([2]; first compound 2.5 µg/mL, partner 0.1562 µg/mL, one replicate, main component drawn): 0.0359
- fitness ([2]; first compound 2.5 µg/mL, partner 0.3125 µg/mL, one replicate, main component drawn): 0.0126
- fitness ([2]; first compound 2.5 µg/mL, partner 0.625 µg/mL, one replicate, main component drawn): 0.0149
- Bliss interaction score ([4]; main component drawn): -0.0867
- Bliss interaction score ([5]; main component drawn): -0.0684
- Bliss interaction score ([6]; main component drawn): -0.0611
- Bliss interaction score ([7]; main component drawn): -0.0543
